From patent US8703767B2, “Substituted N-(3-(pyrimidin-4-yl)phenyl)acrylamide analogs as tyrosine receptor kinase BTK inhibitors” (University of Utah Research Foundation, priority 2011, dated 2014)

What was measured:
Ramos RA-1 = assay: Cell viability assay (ATP-lite), Ramos RA-1; format: cell-based; conditions: Homo sapiens, 96 hours
Procedure: (§1) All cell lines were cultured in RPMI-1640 media supplemented with 10% fetal bovine serum (“FBS”) and 1% penicillin/streptomycin (100 IU/mL penicillin and 100 μg/mL streptomycin) at 37° C. and 5% CO2. ATCC is the American Type Culture Collection (Manassas, Va.), and DSMZ is the Deutsche Sammlung von Mikroorganismen and Zellkulturen GmbH (German Collection of Microorganims and Cell Cultures; Braunschweig, Germany). The cell lines typically used in these studies are indicated below in Table II.
(§2) The cells were grown as described above, and for the assay cells were freshly harvested and then were plated in […] of appropriate media (as described above) at a density of 1000 cells per well in standard solid white-walled 384-well plates. Cells were allowed to attach by incubation overnight at 37° C. and 5% CO2. Test compounds were diluted to 10× concentrations in the appropriate media for the cell used (containing 3% DMSO) and […] of these dilutions were appropriate wells containing the cells. Test compounds were typically tested in triplicate (i.e. a given concentration of compound was assayed in triplicate wells). The plates containing the drug-treated cells and appropriate controls were incubated for 96 hours. At the end of the incubation, […] of ATP-lite (PerkinElmer, Inc., Waltham, Mass.) reagent were added to each well and luminescence signal was measured on an EnVision microplate reader.
(§3) IC50 values are determined using GraphPad Prism 5 software. The data were entered as an X-Y plot into the software as percent inhibition for each concentration of the drug. The concentration values of the drug were log transformed and the nonlinear regression was carried out using the “sigmoidal dose-response (variable slope)” option within the GraphPad software to model the data and calculate IC50 values. The IC50 values reported are the concentration of drug at which 50% inhibition was reached.
The ability of compounds to inhibit the viability of cultured cells was determined using the cell viability assay described above. Activity data for representative compounds is shown below in Table III below for the compounds tested using the indicated cell lines (Ramos RA-1, GRANTA-519, and BxPC-3). IC50 values were determined as described above. If an IC50 is indicated as “n.d.”, it was not determined in the indicated cell line.

GRANTA-519 = assay: Cell viability assay (ATP-lite), GRANTA-519; format: cell-based; conditions: Homo sapiens, 96 hours
Procedure: as §1
(§4) The cells were grown as described above, and for the assay cells were freshly harvested and then were plated in […] of appropriate media (as described above) at a density of 1000 cells per well in standard solid white-walled 384-well plates. Cells were allowed to attach by incubation overnight at 37° C. and 5% CO2. […] At the end of the incubation, […] of ATP-lite (PerkinElmer, Inc., Waltham, Mass.) reagent were added to each well and luminescence signal was measured on an EnVision microplate reader.
(§5) IC50 values are determined using GraphPad Prism 5 software. […]
(§6) The ability of compounds to inhibit the viability of cultured cells was determined using the cell viability assay described above. […] IC50 values were determined as described above. If an IC50 is indicated as “n.d.”, it was not determined in the indicated cell line.

BxPC-3 = assay: Cell viability assay (ATP-lite), BxPC-3; format: cell-based; conditions: Homo sapiens, 96 hours
Procedure: as §1, §4, §5, §6

BTK kinase = BTK kinase (Homo sapiens (Human), UniProt Q06187); assay: BTK kinase assay: time resolved-FRET (HTRF) assay; format: biochemical; conditions: 10 nM BTK, 60 μM ATP, 1 μM substrate, 60 min
Procedure: The secondary assay was a time resolved-FRET kinase assay. Test compound are diluted to desired concentrations in kinase reaction buffer and briefly incubated with BTK kinase (as described above; Invitrogen). The reaction is initiated by the addition of ATP and enzyme substrate, HTRF® KinEASE™-TK Substrate-biotin (Cisbio US, Bedford, Mass.). The composition of the reaction (10 μl) was: 1% v/v DMSO, 10 nM BTK, 60 μM ATP, and 1 μM substrate. After incubation at room temperature for 60 min, the enzyme reaction is stopped by EDTA-containing buffer, which also contains europium-labeled (Eu^3+-Cryptate) anti-phosphotyrosine antibody (Cisbio) and Streptavidin-XL665 (Cisbio). The europium-labeled antibody generates a time-resolved FRET signal with the Stepavidin-XL665, which binds to the biotinylated TK substrate through the streptavidin conjugate when the substrate is phosphorylated. After one hour incubation at room temperature, fluorescence was measured with excitation of 320 nm and dual emission of 615 and 665 nm on an EnVision microplate reader.
as §3

[1] = target: recombinant full-length human BTK kinase (Homo sapiens (Human), UniProt Q06187); assay: BTK kinase assay: ADP generation assay; format: biochemical; conditions: 60 nM BTK, 1.6 μM ATP, 20 μM MBP substrate, 60 min
Procedure: Test compounds were diluted to desired concentrations in kinase reaction buffer and briefly incubated with recombinant full-length human BTK kinase with a (His)6 tag (81.3 kDa; Invitrogen Corporation, Carlsbad, Calif.). The assay as described is based on volumes used in a standard 384 well format using solid, white-wall plates. The reaction was subsequently initiated by the addition of ATP and myelin basic protein (MBP) substrate (Millipore Corporation, Waltham, Mass.). Composition of the assay reaction mixture ([…]) was: 5% v/v DMSO, 60 nM BTK, 1.6 μM ATP, and 20 μM MBP substrate. After incubation at room temperature for 60 min, […] (Promega Corporation, Madison, Wis.) was added to each well and incubated for an additional 40 minutes. The reagent stopped the kinase reaction and depleted the unconsumed ATP. Kinase Detection reagent ([…]; Promega Corporation) was then added to each well. The Kinase Detection reagent comprises reagents to convert ADP to ATP and provide luciferase and luciferin to detect ATP. Luminescence was measured on an EnVision microplate reader (PerkinElmer). The amount of luminescence from each reaction is directly correlated with BTK kinase activity. Percent inhibition and IC50 values were calculated by comparing enzyme activity in drug-treated wells to the appropriate controls.
as §3

wild-type EGFR (ErbB1) = wild-type EGFR (ErbB1) (Homo sapiens (Human), UniProt P00533); assay: LanthaScreen Eu Kinase Binding Assay, wild-type EGFR; conditions: tracer displacement
Procedure: (§7) Based on the results obtained in the foregoing experiment, representative compounds (N-(3-(5-chloro-2-((4-morpholinophenyl)amino)pyrimidin-4-yl)phenyl)acrylamide and N-(3-(6-((4-morpholinophenyl)amino)-1H-pyrazolo[3,4-d]pyrimidin-4-yl)phenyl)acrylamide) were assayed against wild-type and a mutant form (T790M) of EGFR. The compound activity against these kinases was determined using LanthaScreen™ Eu Kinase Bindng Assay (Invitrogen division of Life Technologies, Inc., Grand Island, N.Y.). The assay measures the activity of a compound to bind and displace a proprietary, Alexa Fluor® 647-labeled, ATP-competitive kinase inhibitor scaffold (kinase tracer) to EGFR.

[2] = Pharmacokinetic and bone marrow distribution study; format: in vivo; conditions: CD1 mice, 5 mg/kg iv
Procedure: To determine the ability of a disclosed compound, N-(3-(5-chloro-2-((4-morpholinophenyl)amino)pyrimidin-4-yl)phenyl)acrylamide, to partition to the bone, a pharmacokinetic study in mice was carried out and coupled with a bone marrow distribution study (see FIG. 18). Briefly, CD1 mice were dosed intravenously (“iv”) with 5 mg/kg of the test compound and three animals per time point (5 min to 8 hrs) were sacrificed. Blood (plasma) and bone marrow tissue (femur) were collected from each animal and analyzed by LC/MS for standard PK parameters. […] The baseline distribution to the bone marrow of the compound was also determined.

[3] = test system: Tec family of kinase, as well as EGFR and ErbB4; assay: Kinase profiling against a panel of 40 protein kinases; format: biochemical; conditions: 200 nM of test compound, ATP at Km apparent
Procedure: The specificity of kinase inhibition was assessed with a representative compound, N-(3-(5-chloro-2-((4-morpholinophenyl)amino)pyrimidin-4-yl)phenyl)acrylamide, by determining the activity of this test compound against a panel of protein kinases. Kinase profiling was performed against a focus panel of kinases relevant to BTK and the Tec family of protein kinases. […] The results from this screen confirmed good activity against the Tec family of kinase, as well as EGFR and ErbB4. These later two kinases are known to have a cysteine residue in a position suitable for reaction with the Michaels acceptor of the disclosed compounds.

[4] = test system: OPM2 cells overexpressing BTK; assay: Cell viability assay in OPM2 cells overexpressing BTK; format: cell-based; conditions: Homo sapiens, OPM-2, presence of overexpressed BTK
Procedure: as §2
(§8) The compounds were assessed in a cell-viability assay in OPM2 cells that either expressed endogenous levels of BTK or overexpressed BTK from an expression construct. […] Cell viability or proliferation was determined using the ATPLite Luminescence Assay (PerkinElmer, Inc., Waltham, Mass.); a decrease in luminescence activity correlates with a decrease in cell viability or proliferation.

OPM2 cells = assay: Cell viability assay in OPM2 cells with endogenous levels of BTK; format: cell-based; conditions: Homo sapiens, OPM-2, absence of overexpressed BTK
Procedure: as §2, §8

[5] = target: mutant form of EGFR (T790M) (Homo sapiens (Human), UniProt P00533, T790M); assay: LanthaScreen Eu Kinase Binding Assay, EGFR T790M; conditions: tracer displacement
Procedure: as §7

BTK kinase, sequence (Q06187 whole entry): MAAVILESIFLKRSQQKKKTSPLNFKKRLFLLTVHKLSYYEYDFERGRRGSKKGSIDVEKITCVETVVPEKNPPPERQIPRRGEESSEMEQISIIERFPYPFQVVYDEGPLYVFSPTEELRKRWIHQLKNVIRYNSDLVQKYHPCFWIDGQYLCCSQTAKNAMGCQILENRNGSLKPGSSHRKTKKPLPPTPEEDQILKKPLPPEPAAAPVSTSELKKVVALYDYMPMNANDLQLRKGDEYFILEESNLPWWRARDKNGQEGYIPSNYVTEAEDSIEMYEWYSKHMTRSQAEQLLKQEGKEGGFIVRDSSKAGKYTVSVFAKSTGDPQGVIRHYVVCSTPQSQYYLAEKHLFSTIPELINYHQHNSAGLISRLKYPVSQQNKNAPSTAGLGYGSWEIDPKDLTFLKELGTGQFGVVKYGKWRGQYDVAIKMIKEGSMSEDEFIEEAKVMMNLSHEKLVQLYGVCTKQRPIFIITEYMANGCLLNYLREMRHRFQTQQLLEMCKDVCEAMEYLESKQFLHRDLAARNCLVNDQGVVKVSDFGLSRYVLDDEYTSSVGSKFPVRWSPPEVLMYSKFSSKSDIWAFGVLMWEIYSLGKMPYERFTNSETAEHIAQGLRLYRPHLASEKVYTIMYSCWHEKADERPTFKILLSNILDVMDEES
recombinant full-length human BTK kinase, sequence (Q06187 whole entry): as above
wild-type EGFR (ErbB1), sequence (P00533 25-1210): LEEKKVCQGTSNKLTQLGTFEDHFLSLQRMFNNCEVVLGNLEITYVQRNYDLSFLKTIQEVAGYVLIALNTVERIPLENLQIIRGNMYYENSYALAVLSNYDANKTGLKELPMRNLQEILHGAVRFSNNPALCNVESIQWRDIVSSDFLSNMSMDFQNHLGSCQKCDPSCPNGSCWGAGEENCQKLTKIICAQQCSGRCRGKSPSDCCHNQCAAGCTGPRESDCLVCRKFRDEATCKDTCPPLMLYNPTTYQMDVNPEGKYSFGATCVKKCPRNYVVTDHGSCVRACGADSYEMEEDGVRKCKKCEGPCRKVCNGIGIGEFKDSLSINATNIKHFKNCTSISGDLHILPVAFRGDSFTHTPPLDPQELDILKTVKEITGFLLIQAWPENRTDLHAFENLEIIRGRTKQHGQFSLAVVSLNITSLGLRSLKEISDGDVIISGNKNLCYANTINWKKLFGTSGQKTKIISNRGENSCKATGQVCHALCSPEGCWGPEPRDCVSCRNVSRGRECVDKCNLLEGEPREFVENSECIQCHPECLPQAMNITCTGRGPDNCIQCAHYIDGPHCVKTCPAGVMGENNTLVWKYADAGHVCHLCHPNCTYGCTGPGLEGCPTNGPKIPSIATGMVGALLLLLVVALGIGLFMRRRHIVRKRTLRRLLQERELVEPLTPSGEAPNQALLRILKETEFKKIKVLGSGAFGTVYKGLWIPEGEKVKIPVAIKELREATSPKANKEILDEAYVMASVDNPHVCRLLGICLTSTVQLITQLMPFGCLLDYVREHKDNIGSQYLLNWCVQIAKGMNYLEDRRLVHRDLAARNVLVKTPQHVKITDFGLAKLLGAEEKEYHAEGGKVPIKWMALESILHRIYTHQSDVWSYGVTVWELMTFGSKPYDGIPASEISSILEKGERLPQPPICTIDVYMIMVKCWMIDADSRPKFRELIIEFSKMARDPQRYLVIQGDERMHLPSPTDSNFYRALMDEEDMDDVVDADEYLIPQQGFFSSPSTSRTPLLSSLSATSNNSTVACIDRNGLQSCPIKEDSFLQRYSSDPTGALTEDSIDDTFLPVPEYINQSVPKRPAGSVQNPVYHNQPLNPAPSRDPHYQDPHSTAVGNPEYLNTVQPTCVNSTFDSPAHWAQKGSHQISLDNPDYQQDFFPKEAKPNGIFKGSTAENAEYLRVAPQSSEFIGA
mutant form of EGFR (T790M), sequence (P00533 25-1210 T790M): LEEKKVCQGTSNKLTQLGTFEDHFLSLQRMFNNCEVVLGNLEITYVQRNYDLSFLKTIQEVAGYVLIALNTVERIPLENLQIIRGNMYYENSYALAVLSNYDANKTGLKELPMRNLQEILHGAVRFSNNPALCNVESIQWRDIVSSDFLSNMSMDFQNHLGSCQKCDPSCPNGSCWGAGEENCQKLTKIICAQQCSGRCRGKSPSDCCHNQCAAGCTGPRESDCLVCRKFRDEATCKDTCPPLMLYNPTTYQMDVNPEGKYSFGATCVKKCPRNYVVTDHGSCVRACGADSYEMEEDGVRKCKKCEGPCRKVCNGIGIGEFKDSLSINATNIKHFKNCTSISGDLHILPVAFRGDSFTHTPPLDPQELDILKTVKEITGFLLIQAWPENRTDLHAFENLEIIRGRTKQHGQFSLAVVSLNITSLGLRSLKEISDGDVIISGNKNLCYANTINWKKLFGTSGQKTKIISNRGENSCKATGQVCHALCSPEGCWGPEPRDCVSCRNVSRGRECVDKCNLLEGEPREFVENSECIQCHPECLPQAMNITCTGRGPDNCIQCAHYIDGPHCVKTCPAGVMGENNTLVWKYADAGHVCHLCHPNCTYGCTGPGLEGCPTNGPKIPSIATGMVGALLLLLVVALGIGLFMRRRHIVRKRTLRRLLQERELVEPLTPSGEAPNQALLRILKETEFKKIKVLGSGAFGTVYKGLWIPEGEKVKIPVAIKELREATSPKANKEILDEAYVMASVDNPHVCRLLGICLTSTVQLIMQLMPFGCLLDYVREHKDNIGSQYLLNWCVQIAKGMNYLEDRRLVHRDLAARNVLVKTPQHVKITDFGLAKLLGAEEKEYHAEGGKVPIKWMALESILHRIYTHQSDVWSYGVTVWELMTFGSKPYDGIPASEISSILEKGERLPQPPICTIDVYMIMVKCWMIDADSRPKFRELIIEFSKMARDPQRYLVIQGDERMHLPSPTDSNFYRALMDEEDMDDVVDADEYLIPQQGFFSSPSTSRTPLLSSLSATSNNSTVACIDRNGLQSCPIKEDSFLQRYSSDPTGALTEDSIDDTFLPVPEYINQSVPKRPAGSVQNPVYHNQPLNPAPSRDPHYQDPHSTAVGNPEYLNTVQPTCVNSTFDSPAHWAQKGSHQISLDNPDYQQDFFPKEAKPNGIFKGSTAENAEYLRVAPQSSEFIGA

## C=CC(=O)Nc1cccc(-c2nc(Nc3ccc(N4CCN(C)CC4)cc3)nc3[nH]ncc23)c1 [compound 2]
Ramos RA-1
  IC50: 18.8 µM
GRANTA-519
  IC50: 13.7 µM

## C=CC(=O)Nc1cccc(-c2nc(Nc3ccc(N4CCOCC4)cc3)nc3[nH]ncc23)c1 [compound 1]
BxPC-3
  IC50: 7 µM
Ramos RA-1
  IC50: > 30 µM
BTK kinase
  IC50: 0.045 µM
[1]
  IC50: 0.079 µM

## C=CC(=O)Nc1cccc(-c2nc(Nc3ccc(N4CCOCC4)cc3)ncc2Cl)c1 [N-(3-(5-chloro-2-((4-morpholinophenyl)amino)pyrimidin-4-yl)phenyl)acrylamide]
wild-type EGFR (ErbB1)
  IC50: 253 nM
[2]
  dwell time, bone marrow compared to plasma: higher in the bone marrow compared to plasma
  plasma concentrations: high plasma concentrations
  time after which compound cleared in the elimination phase: > 10 min
[2]; mouse, bone marrow (femur) versus plasma, read-out: concentration in bone marrow compartment compared to plasma levels (fold less)
  fold lower concentration in bone marrow than in plasma: ~50
[2]; mouse, plasma
  half-life: ~45 min
[3]
  percent inhibition in kinase profiling: good activity
[4]
  IC50: ~586 nM
OPM2 cells
  IC50: ~5050 nM

## C=CC(=O)Nc1cccc(-c2nc(Cl)ncc2Nc2cccc(F)c2)c1 [compound 12]
[1]
  IC50: 0.829 µM

## C=CC(=O)Nc1cccc(-c2nc(Cl)ncc2Cl)c1 [compound 11]
[1]
  IC50: 14.4 µM

## C=CC(=O)Nc1cccc(-c2nc(Nc3ccc(N4CCN(C)CC4)cc3)ncc2Cl)c1 [compound 9]
[1]
  IC50: 1.27 µM

## C=CC(=O)Nc1cccc(-c2nc(Nc3ccc(N4CCOCC4)cc3)ncc2Nc2ccccc2)c1 [compound 6]
[1]
  IC50: > 100 µM

## C=CC(=O)Nc1cccc(-c2nc(Nc3ccc(N4CCOCC4)cc3)nc3[nH]ncc23)c1 [N-(3-(6-((4-morpholinophenyl)amino)-1H-pyrazolo[3,4-d]pyrimidin-4-yl)phenyl)acrylamide]
wild-type EGFR (ErbB1)
  IC50: 105 nM
[5]
  IC50: 2.67 nM

## C=CC(=O)Nc1cccc(-c2nc(Cl)ncc2Br)c1 [compound 10]
[1]
  IC50: 4.7 µM

## C=CC(=O)Nc1cccc(-c2nc(Cl)nc3[nH]ncc23)c1 [compound 4]
Ramos RA-1
  IC50: > 30 µM
GRANTA-519
  IC50: > 30 µM
BTK kinase
  IC50: 3.77 µM
[1]
  IC50: 0.263 µM

## C=CC(=O)Nc1cccc(-c2nc(Nc3ccc(N4CCOCC4)c(F)c3)nc3[nH]ncc23)c1 [compound 3]
BTK kinase
  IC50: 0.126 µM
[1]
  IC50: 0.23 µM

## C=CC(=O)Nc1cccc(-c2nc(Nc3ccc(N4CCOCC4)cc3)ncc2Cl)c1 [compound 8]
BxPC-3
  IC50: 22.2 µM
Ramos RA-1
  IC50: 20.9 µM
BTK kinase
  IC50: 0.047 µM
[1]
  IC50: 0.033 µM

## C=CC(=O)Nc1cccc(-c2nc(Nc3ccc(N4CCOCC4)c(F)c3)ncc2Cl)c1 [compound 7]
BTK kinase
  IC50: 0.287 µM
[1]
  IC50: 0.518 µM

## C=CC(=O)Nc1cccc(-c2nc(Cl)ncc2Nc2ccccc2)c1 [compound 5]
[1]
  IC50: 1.81 µM
